According to US9493396B2, “Substituted naphthalene compounds as calcium sensing receptor modulators” (LUPIN ATLANTIS HOLDINGS SA, priority 2013, dated 2016):
Where a name gives a salt, the structure may show the parent alone.

Target: T1, Calcium sensing receptor (hCaSR) (Homo sapiens, UniProt P41180)
T1 construct: expressed in transfected cells; host or cells: HEK293 (stably transfected)
T1 sequence (P41180 20-1078): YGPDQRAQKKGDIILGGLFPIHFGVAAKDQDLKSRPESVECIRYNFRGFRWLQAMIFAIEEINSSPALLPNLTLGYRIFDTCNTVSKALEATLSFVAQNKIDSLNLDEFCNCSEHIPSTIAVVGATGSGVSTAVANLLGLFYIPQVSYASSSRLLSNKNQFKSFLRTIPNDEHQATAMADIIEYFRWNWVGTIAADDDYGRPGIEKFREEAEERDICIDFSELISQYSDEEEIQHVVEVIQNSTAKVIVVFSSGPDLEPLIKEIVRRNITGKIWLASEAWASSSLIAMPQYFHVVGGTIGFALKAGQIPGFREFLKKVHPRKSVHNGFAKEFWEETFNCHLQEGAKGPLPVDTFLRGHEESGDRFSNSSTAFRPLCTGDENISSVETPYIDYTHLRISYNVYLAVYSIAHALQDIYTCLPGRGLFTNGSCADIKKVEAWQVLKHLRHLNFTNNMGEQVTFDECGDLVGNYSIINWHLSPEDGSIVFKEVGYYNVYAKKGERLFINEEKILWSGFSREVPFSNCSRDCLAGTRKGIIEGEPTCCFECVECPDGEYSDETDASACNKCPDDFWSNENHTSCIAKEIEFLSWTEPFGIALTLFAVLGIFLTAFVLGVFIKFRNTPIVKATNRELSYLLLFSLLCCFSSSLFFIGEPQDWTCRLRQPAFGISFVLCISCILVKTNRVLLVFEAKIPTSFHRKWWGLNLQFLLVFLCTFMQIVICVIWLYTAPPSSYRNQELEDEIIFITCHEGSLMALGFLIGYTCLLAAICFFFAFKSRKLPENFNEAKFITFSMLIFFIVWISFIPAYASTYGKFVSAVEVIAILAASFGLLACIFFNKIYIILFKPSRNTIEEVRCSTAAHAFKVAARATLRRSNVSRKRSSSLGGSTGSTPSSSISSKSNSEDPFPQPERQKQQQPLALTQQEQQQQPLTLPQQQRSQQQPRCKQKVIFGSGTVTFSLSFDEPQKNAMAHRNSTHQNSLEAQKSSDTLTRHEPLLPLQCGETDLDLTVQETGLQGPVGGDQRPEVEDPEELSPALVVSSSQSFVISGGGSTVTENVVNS
Assay: In-vitro assay of calcimimetics through modulation of calcium sensing receptor (intracellular calcium increase, FLIPR)
Type: cell-based
Conditions: stably transfected HEK293 cells expressing hCaSR; Fluo4NW dye; 0.3 mM CaCl2; 8-point assay; read-out: EC50 in range
Description: In-Vitro Assay Method of Calcimimetics Through Modulation of Calcium Sensing Receptor (CaSR): The ability of the compounds to modulate Calcium sensing receptor is determined by measuring an increase in intracellular calcium [Ca^2+]i. Stably transfected HEK293 cells expressing hCaSR_pTriEx-3 hygro vector are developed. Cells are grown overnight on a 96-well plate to 80% confluency in Ham's F12 containing 20% FBS at 37° C., 5% CO2. Subsequently, cells are washed extensively with 20 mM HEPES buffer containing 126 mM […], 1 mM MgCl2 and 4 mM KCl to remove serum components that might interfere with the assay. Cells are loaded with calcium sensing Fluo4NW dye in HEPES base buffer containing 0.1% BSA and 1 mg/ml glucose for 30 minutes to measure changes in intracellular calcium. The activities of the compounds are measured in FLIPR using 0.3 mM CaCl2 in 20 mM HEPES base buffer. The effectiveness of the compound to modulate receptor activity is determined by calculating the EC50 responses for that compound in an 8-point assay and plotted using GraphPad Prism 5.

Q: Which EC50 does the source give for C[C@@H](NCc1cc(-c2ccc(C(=O)O)cc2)c2ccccc2c1)c1cccc2ccccc12 [Example 106, (R)-4-(3-(((1-(Naphthalen-1-yl)ethyl)amino)methyl)naphthalen-1-yl)benzoic acid hydrochloride] here?
A: 50 to 400 nM

Q: With CC(C)OC(=O)CCc1cc(F)cc(-c2cc(C(C)N[C@H](C)c3cccc(Cl)c3)cc3ccccc23)c1 (mixture of isomers) [Example 153, Isopropyl 3-(3-(3-(1-(((R)-1-(3-chlorophenyl)ethyl)amino)ethyl)naphthalen-1-yl)-5-fluorophenyl) propanoate hydrochloride] as the compound, how does the EC50 read?
A: 20 to 50 nM

Q: With COc1cccc([C@@H](C)NCc2cc(-c3cccc(C(=O)O)c3C)c3ccccc3c2)c1 [Example 101, (R)-3-(3-(((1-(3-Methoxyphenyl)ethyl)amino)methyl)naphthalen-1-yl)-2-methylbenzoic acid hydrochloride] as the compound, how does the EC50 read?
A: 50 to 400 nM

Q: Which EC50 does the source give for COc1cccc([C@@H](C)NC(C)c2cc(-c3ccc(C(=O)O)c(C)c3)c3ccccc3c2)c1 (stereo partly drawn) [Example 130, 4-(3-(1-(((R)-1-(3-Methoxyphenyl)ethyl)amino)ethyl)naphthalen-1-yl)-2-methylbenzoic acid hydrochloride] here?
A: 50 to 400 nM

Q: Which EC50 does the source give for COc1cccc([C@@H](C)NC(C)c2cc(-c3ccc(Cl)c(C(=O)O)c3)c3ccccc3c2)c1 (stereo partly drawn) [Example 133, 2-Chloro-5-(3-(1-(((R)-1-(3-methoxyphenyl)ethyl)amino)ethyl)naphthalen-1-yl)benzoic acid hydrochloride] here?
A: < 20 nM

Q: Which EC50 does the source give for COc1cccc([C@@H](C)NC(C)c2cc(-c3ccc(F)cc3)c3ccccc3c2)c1 (mixture of isomers) [Example 15, 1-(4-(4-Fluorophenyl)naphthalen-2-yl)-N-((R)-1-(3-methoxyphenyl)ethyl)ethanamine hydrochloride] here?
A: < 20 nM

Q: For C[C@@H](NCc1cc(-c2ccc(C(F)(F)F)cc2)c2ccccc2c1)c1cccc2ccccc12 [Example 1, (R)-1-(Naphthalen-1-yl)-N-((4-(4-(trifluoromethyl)phenyl)naphthalen-2-yl)methyl)ethanamine hydrochloride], which EC50 is on record?
A: < 20 nM

Q: How did the EC50 turn out when COc1cccc([C@@H](C)NC(C)c2cc(-c3ccc(C(=O)O)cc3F)c3ccccc3c2)c1 (stereo partly drawn) [Example 120, 3-Fluoro-4-(3-(1-(((R)-1-(3-methoxyphenyl)ethyl)amino)ethyl)naphthalen-1-yl)benzoic acid hydrochloride] was run?
A: < 20 nM

Q: For COc1cccc([C@@H](C)NC(C)c2cc(-c3ccc(C(F)(F)F)c(C(=O)O)c3)c3ccccc3c2)c1 (stereo partly drawn) [Example 128, 5-(3-(1-(((R)-1-(3-Methoxyphenyl)ethyl)amino)ethyl)naphthalen-1-yl)-2-(trifluoromethyl) benzoic acid hydrochloride], which EC50 is on record?
A: 50 to 400 nM

Q: Which EC50 does the source give for CC(N[C@H](C)c1cccc(Cl)c1)c1cc(-c2ccc(OC(F)(F)F)cc2)c2ccccc2c1 (stereo partly drawn) [Example 20, (1R)-1-(3-Chlorophenyl)-N-(1-(4-(4-(trifluoromethoxy)phenyl)naphthalen-2-yl)ethyl)ethanamine hydrochloride] here?
A: < 20 nM

Q: For COc1cccc([C@@H](C)NCc2cc(-c3cccc(C(C)(C)C(=O)O)c3)c3ccccc3c2)c1 [Example 112, (R)-2-(3-(3-(((1-(3-Methoxyphenyl)ethyl)amino)methyl)naphthalen-1-yl)phenyl)-2-methylpropanoic acid hydrochloride], which EC50 is on record?
A: 50 to 400 nM

Q: CCC(N[C@H](C)c1cccc(OC)c1)c1cc(-c2ccc(C)c(C(=O)O)c2)c2ccccc2c1 (stereo partly drawn) [Example 149, 5-(3-(1-(((R)-1-(3-Methoxyphenyl)ethyl)amino)propyl)naphthalen-1-yl)-2-methylbenzoic acid hydrochloride] was tested. Which EC50 did it give?
A: 50 to 400 nM

Q: With COc1cccc([C@@H](C)NC(C)c2cc(-c3cccc(C(=O)O)c3C)c3ccccc3c2)c1 (stereo partly drawn) [Example 116, 3-(3-(1-(((R)-1-(3-Methoxyphenyl)ethyl)amino)ethyl)naphthalen-1-yl)-2-methylbenzoic acid hydrochloride] as the compound, how does the EC50 read?
A: 20 to 50 nM

Q: Which EC50 does the source give for COC(=O)c1cc(-c2cc(CN[C@H](C)c3cccc(OC)c3)cc3ccccc23)ccc1C [Example 155, (R)-Methyl 5-(3-(((1-(3-methoxyphenyl)ethyl)amino)methyl)naphthalen-1-yl)-2-methylbenzoate hydrochloride] here?
A: < 20 nM

Q: With CCOc1cccc([C@@H](C)NC(C)c2cc(-c3ccc(C)c(C(=O)O)c3)c3ccccc3c2)c1 (stereo partly drawn) [Example 143, 5-(3-(1-(((R)-1-(3-Ethoxyphenyl)ethyl)amino)ethyl)naphthalen-1-yl)-2-methylbenzoic acid hydrochloride] as the compound, how does the EC50 read?
A: 20 to 50 nM

Q: CC(N[C@H](C)c1cccc(Cl)c1)c1cc(-c2ccc(F)c(CCC(=O)O)c2)c2ccccc2c1 (stereo partly drawn) [Example 144, 3-(5-(3-(1-(((R)-1-(3-Chlorophenyl)ethyl)amino)ethyl)naphthalen-1-yl)-2-fluorophenyl)propanoic acid hydrochloride] was tested. Which EC50 did it give?
A: 20 to 50 nM

Q: COc1cccc([C@@H](C)NCc2cc(-c3ccc(F)c(C(=O)O)c3)c3ccccc3c2)c1 [Example 97, (R)-2-Fluoro-5-(3-(((1-(3-methoxyphenyl)ethyl)amino)methyl)naphthalen-1-yl)benzoic acid hydrochloride] was tested. Which EC50 did it give?
A: < 20 nM

Q: Which EC50 does the source give for COc1cccc([C@@H](C)NC(C)c2cc(-c3ccc(C(F)(F)C(=O)O)cc3)c3ccccc3c2)c1 (stereo partly drawn) [Example 135, 2,2-Difluoro-2-(4-(3-(1-(((R)-1-(3-methoxyphenyl)ethyl)amino)ethyl)naphthalen-1-yl)phenyl) acetic acid hydrochloride] here?
A: < 20 nM

Q: COc1cccc([C@@H](C)NC(C)c2cc(-c3ccc(C)c(C(=O)O)c3)c3ccccc3c2)c1 (single isomer, unassigned) [Example 114b, hydrochloride] was tested. Which EC50 did it give?
A: 20 to 50 nM

Q: For COc1cccc([C@@H](C)NC(C)c2cc(-c3ccc(C(=O)O)c(F)c3)c3ccccc3c2)c1 (stereo partly drawn) [Example 132, 2-Fluoro-4-(3-(1-(((R)-1-(3-methoxyphenyl)ethyl)amino)ethyl)naphthalen-1-yl)benzoic acid hydrochloride], which EC50 is on record?
A: 50 to 400 nM

Q: How did the EC50 turn out when COc1cccc([C@@H](C)NC(C)c2cc(-c3ccc(C(F)(F)F)c(CCC(=O)O)c3)c3ccccc3c2)c1 (stereo partly drawn) [Example 145, 3-(5-(3-(1-(((R)-1-(3-Methoxyphenyl)ethyl)amino)ethyl)naphthalen-1-yl)-2-(trifluoromethyl)phenyl)propanoic acid hydrochloride] was run?
A: 50 to 400 nM

Q: How did the EC50 turn out when COc1cccc([C@@H](C)NCc2cc(-c3ccc(F)c(CCC(=O)O)c3)c3ccccc3c2)c1 [Example 110, hydrochloride] was run?
A: < 20 nM

Q: With COc1cc([C@@H](C)NCc2cc(-c3ccc(C(F)(F)F)cc3)c3ccccc3c2)ccc1F [Example 2, (R)-1-(4-Fluoro-3-methoxyphenyl)-N-((4-(4-(trifluoromethyl)phenyl)naphthalen-2-yl)methyl)ethanamine hydrochloride] as the compound, how does the EC50 read?
A: 20 to 50 nM

Q: Which EC50 does the source give for CCOc1cccc([C@@H](C)NC(CC)c2cc(-c3ccc(F)c(CCC(=O)O)c3)c3ccccc3c2)c1 (stereo partly drawn) [Example 141, 3-(5-(3-(1-(((R)-1-(3-Ethoxyphenyl)ethyl)amino)propyl)naphthalen-1-yl)-2-fluorophenyl) propanoic acid hydrochloride] here?
A: 20 to 50 nM

Q: How did the EC50 turn out when COc1cc([C@@H](C)NCc2cc(-c3ccc(C(=O)O)cc3)c3ccccc3c2)ccc1F [Example 107, (R)-4-(3-(((1-(4-Fluoro-3-methoxyphenyl)ethyl)amino)methyl)naphthalen-1-yl)benzoic acid hydrochloride] was run?
A: 20 to 50 nM

Q: How did the EC50 turn out when COc1cccc([C@@H](C)NC(C)c2cc(-c3ccc(OC)c(CCC(=O)O)c3)c3ccccc3c2)c1 (stereo partly drawn) [Example 131, 3-(2-Methoxy-5-(3-(1-(((R)-1-(3-methoxyphenyl)ethyl)amino)ethyl)naphthalen-1-yl)phenyl) propanoic acid hydrochloride] was run?
A: 20 to 50 nM
